Like-named read-outs stand apart in the source and are kept apart here.
Tests used:
BV-associated bacteria [1] = experiment: Acid production by BV-associated bacteria in carbohydrate containing gels, slightly aerobic incubation (Experimental Example 1); type: cell-based; details: 1% (w/v) carbohydrate gel
Description: (1) Grouping in experiment: • (1) Isomaltulose group: containing 1% (w/v) isomaltulose, MRS basal medium without carbohydrate, 5% (w/v) calf serum, and 0.5% (w/v) xanthan gum, pH5.4; • (2) Isomaltose group: containing 1% (w/v) isomaltose, MRS basal medium without carbohydrate, 5% (w/v) calf serum, and 0.5% (w/v) xanthan gum, pH5.4; • (3) Sucrose group: containing 1% (w/v) sucrose, MRS basal medium without carbohydrate, 5% (w/v) calf serum, and 0.5% (w/v) xanthan gum, pH5.4; and • (4) Maltose group: containing 1% (w/v) maltose, MRS basal medium without carbohydrate, 5% (w/v) calf serum, and 0.5% (w/v) xanthan gum, pH5.4.
The gel of each group was formulated essentially following the method described in Composition Example 1, then sterilized, added with calf serum, and packed in test tubes in a specification of 5 g/tube, for late use.
(§1) (2) Secretion specimens from BV patients: vaginal secretions from 5 BV patients; and the criteria of inclusion are: • (1) conforming to the Amsel clinical criteria of BV diagnosis, wherein the pH value of the vaginal secretions was >4.6; • (2) after smearing, Gram staining and microscopical examination of vaginal secretions, Nugent score ≥7; and • (3) no other vaginosis and no antimicrobial agent is used within two weeks.
(3) After sampling, the secretion specimens from BV patients meeting the criteria of inclusion were immediately inoculated to the above 4 gels containing a carbohydrate, and slightly aerobically incubated at 37° C. for 46 hrs. The pH values of the gel matrices are detected with a precise pH test paper respectively at 14 hrs, 36 hrs, and 46 hrs.

BV-associated bacteria [2] = experiment: Acid production by BV-associated bacteria in semi-solid agars containing a carbohydrate, anaerobic incubation (Experimental Example 2); type: cell-based; details: 24 hrs anaerobic, 37° C., 1.5% (w/v) carbohydrate, initial pH 5.4
Description: (1) Grouping in experiment: • (1) Glucose group: containing 1.5% (w/v) glucose, MRS basal medium without carbohydrate, 5% (w/v) calf serum, and 0.45% (w/v) agar, pH5.4; • (2) Fructose group: containing 1.5% (w/v) fructose, MRS basal medium without carbohydrate, 5% (w/v) calf serum, and 0.45% (w/v) agar, pH5.4; • (3) Mannose group: containing 1.5% (w/v) mannose, MRS basal medium without carbohydrate, 5% (w/v) calf serum, and 0.45% (w/v) agar, pH5.4; • (4) Sucrose group: containing 1.5% (w/v) sucrose, MRS basal medium without carbohydrate, 5% (w/v) calf serum, and 0.45% (w/v) agar, pH5.4; • (5) Maltose group: containing 1.5% (w/v) maltose, MRS basal medium without carbohydrate, 5% (w/v) calf serum, and 0.45% (w/v) agar, pH5.4; • (6) Isomaltose group: containing 1.5% (w/v) isomaltose, MRS basal medium without carbohydrate, 5% (w/v) calf serum, and 0.45% (w/v) agar, pH5.4; and • (7) Isomaltulose group: containing 1.5% (w/v) isomaltulose, MRS basal medium without carbohydrate, 5% (w/v) calf serum, and 0.45% (w/v) agar, pH5.4.
The semi-solid agar of each group was formulated essentially following the method described in Composition Example 1, then sterilized, added with calf serum, and packed in test tubes in a specification of 5 g/tube, for late use.
as §1
(3) After sampling, the secretion specimens from BV patients meeting the criteria of inclusion were immediately inoculated to the above 7 aseptic semi-solid agars containing a carbohydrate at the bedside and anaerobically incubated at 37° C. for 24 hrs. The pH values of the agar matrices are detected with a precise pH test paper.

[3] = tested on: Lactobacilli in the secretions from BV patients; experiment: Selective promotion of carbohydrate containing gels for the growth of Lactobacilli, 16s rDNA identification (Experimental Example 4); type: cell-based; details: secretions from 20 BV patients; 1% (w/v) carbohydrate gel, 48 hrs slightly aerobic
Procedure: (§2) (3) After sampling, the vaginal secretion specimens from BV patients meeting the criteria of inclusion were immediately inoculated to the above 4 gels containing a carbohydrate, slightly aerobically incubated at 37° C. for 48 hrs, then transferred to a plate containing improved MRS with 1% (w/v) glucose and 5% (w/v) calf serum, slightly aerobically incubated for 20-48 hrs, isolated, purified and multiplied. The strain was identified by 16s rDNA sequencing.

Canidia albicans = experiment: Metabolization of carbohydrates by Canidia albicans, residual carbohydrate by HPLC (Experimental Example 5); type: cell-based; details: for residual carbohydrate content by HPLC: 72 hrs aerobic, 37° C., initial 1.5% (w/v) carbohydrate, pH 7.0, detection limit 0.05% (w/v)
Procedure: (1) Grouping in experiment:
(2) Test strain: 2 strains of Canidia albicans, isolated from patients with candidal vaginitis.
The supernatant was separated by centrifugation, and packed in a specification of 5 ml/tube. The carbohydrate content in each tube was detected by HPLC.

[4] = tested on: Gardnerella vaginalis in the secretions from BV patients; experiment: Selective promotion of carbohydrate containing gels for the growth of Gardnerella vaginalis (Experimental Example 4); type: cell-based; details: secretions from 20 BV patients; 1% (w/v) carbohydrate gel, 48 hrs slightly aerobic
Procedure: as §2

[5] = tested on: Bifidobacteria in the secretions from BV patients; experiment: Selective promotion of carbohydrate containing gels for the growth of Bifidobacteria (Experimental Example 4); type: cell-based; details: secretions from 20 BV patients; 1% (w/v) carbohydrate gel, 48 hrs slightly aerobic
Procedure: as §2

BV = details: cited from earlier work; for cure rate for BV: Livengood 2007
L. jensenii = details: medium with 0.5% (w/v) isomaltulose, pH 5.4
Description: (§3) The following culture media containing different concentrations of preservatives were formulated with a basal medium containing 0.5% (w/v) isomaltulose, MRS medium without carbohydrate, and 5% (w/v) calf serum:
A. 0.1% (w/v) sodium benzoate
B. 0.2% (w/v) sodium benzoate
C. 0.02% (w/v) sodium dehydroacetate
D. 0.25% (w/v) sodium propionate group
E. 0.5% (w/v) sodium propionate group
(§4) F. 0.02% (w/v) sodium dehydroacetate+0.25% (w/v) sodium propionate group
(§5) G. 0.02% (w/v) sodium dehydroacetate+0.5% (w/v) sodium propionate group
(§6) The culture medium of each group was adjusted to pH 5.4, sterilized and packed in a test tube in a specification of 2 ml/tube.
(§7) (2) Inoculation and incubation of test strains: a bacterial suspension containing (1-5)×10^5 cfu/ml Candida glabrada isolate and a bacterial suspension containing (1-5)×10^5 cfu/ml L. jensenii were inoculated to each tube respectively. The Candida glabrada was aerobically incubated at 37° C. for 72 hrs, and the L. jensenii was microaerophilic incubated for 22 hrs.

Candida glabrada isolate = details: medium with 0.5% (w/v) isomaltulose, pH 5.4
Description: as §3
A. 0.1% (w/v) sodium benzoate
B. 0.2% (w/v) sodium benzoate
C. 0.02% (w/v) sodium dehydroacetate
D. 0.25% (w/v) sodium propionate group
E. 0.5% (w/v) sodium propionate group
as §4, §5, §6, §7

[6] = 0.02% (w/v) sodium dehydroacetate

In the case of `OC[C@H]1O[C@H](O[C@H]2[C@H](O)[C@@H](O)C(O)O[C@@H]2CO)[C@H](O)[C@@H](O)[C@@H]1O` (mixture of isomers) [Maltose, maltose], the “pH of the gel” value (BV-associated bacteria [1]; Specimen 1, 0 hr (initial)) is reported as 5.4, the “pH of the gel” value (BV-associated bacteria [1]; Specimen 1, 14 hrs, slightly aerobic, 37° C., initial pH 5.4) is reported as 3.8 and the “pH of the gel” value (BV-associated bacteria [1]; Specimen 1, 46 hrs, slightly aerobic, 37° C., initial pH 5.4) is reported as ≤3.8. The “pH of the gel” value (BV-associated bacteria [1]; Specimen 2, 0 hr (initial)) was 5.4, the “pH of the gel” value (BV-associated bacteria [1]; Specimen 2, 14 hrs, slightly aerobic, 37° C., initial pH 5.4) was 4.1-4.4 and the “pH of the gel” value (BV-associated bacteria [1]; Specimen 2, 46 hrs, slightly aerobic, 37° C., initial pH 5.4) was ≤3.8. For the same compound, the “pH of the gel” value (BV-associated bacteria [1]; Specimen 3, 0 hr (initial)) was 5.4, the “pH of the gel” value (BV-associated bacteria [1]; Specimen 3, 14 hrs, slightly aerobic, 37° C., initial pH 5.4) was 4.1-4.4 and the “pH of the gel” value (BV-associated bacteria [1]; Specimen 3, 36 hrs, slightly aerobic, 37° C., initial pH 5.4) was ≤3.8. For the same compound, the “pH of the gel” value (BV-associated bacteria [1]; Specimen 4, 0 hr (initial)) was 5.4, the “pH of the gel” value (BV-associated bacteria [1]; Specimen 4, 14 hrs, slightly aerobic, 37° C., initial pH 5.4) was 4.6 and the “pH of the gel” value (BV-associated bacteria [1]; Specimen 4, 36 hrs, slightly aerobic, 37° C., initial pH 5.4) was ≤3.8. For the same compound, the “pH of the gel” value (BV-associated bacteria [1]; Specimen 5, 0 hr (initial)) was 5.4, the “pH of the gel” value (BV-associated bacteria [1]; Specimen 5, 14 hrs, slightly aerobic, 37° C., initial pH 5.4) was 4.1-4.4 and the “pH of the gel” value (BV-associated bacteria [1]; Specimen 5, 36 hrs, slightly aerobic, 37° C., initial pH 5.4) was 4.1-4.4. For the same compound, the “pH of the semi-solid agar” value (BV-associated bacteria [2]; Specimen 1) was 3.8, the “pH of the semi-solid agar” value (BV-associated bacteria [2]; Specimen 2) was 3.8 and the “pH of the semi-solid agar” value (BV-associated bacteria [2]; Specimen 3) was 3.8. The “pH of the semi-solid agar” value (BV-associated bacteria [2]; Specimen 4) was 3.8, the “pH of the semi-solid agar” value (BV-associated bacteria [2]; Specimen 5) was 3.8 and the “samples positive for Lactobacilli, In total” value [3] was 8. The “total number of samples positive for L. amylovorus incubation” value [3] was 1, the “total number of samples positive for L. crispatus incubation” value [3] was 1 and the “total number of samples positive for L. gasseri incubation” value [3] was 2. For the same compound, the “total number of samples positive for L. iners incubation” value [3] was 0, the “total number of samples positive for L. jensenii incubation” value [3] was 3 and the “total number of samples positive for L. mucosae incubation” value [3] was 1. For the same compound, the “residual carbohydrate content by HPLC” value (Canidia albicans; Canidia albicans 1) was “Not detected^1”, the “residual carbohydrate content by HPLC” value (Canidia albicans; Canidia albicans 2) was “Not detected” and the residual concentration (Canidia albicans; both strains of Canidia albicans, 72 hrs, initial 1.5% (w/v)) was “below 0.05 % (w/v)”. For the same compound, the “number of samples positive for Gardnerella vaginalis” value [4] was 6 (2, 6, 7, 9, 15, 19), the “samples positive for Gardnerella vaginalis, In total” value [4] was 6 and the “number of samples positive for Bifidobacterium bifidum” value [5] was 1 (8). For the same compound, the “number of samples positive for Bifidobacterium breve” value [5] was 0, the “number of samples positive for Bifidobacterium dentium” value [5] was 0 and the “number of samples positive for Bifidobacterium longum” value [5] was 0. The “samples positive for Bifidobacteria, In total” value [5] was 1.

In the case of `O=C(CO)[C@@H](O)[C@H](O)[C@H](O)CO` [Fructose, fructose], the “pH of the semi-solid agar” value (BV-associated bacteria [2]; Specimen 1) is reported as 4.6, the “pH of the semi-solid agar” value (BV-associated bacteria [2]; Specimen 2) is reported as 4.1 and the “pH of the semi-solid agar” value (BV-associated bacteria [2]; Specimen 3) is reported as 3.8-4.1. For the same compound, the “pH of the semi-solid agar” value (BV-associated bacteria [2]; Specimen 4) was 4.1 and the “pH of the semi-solid agar” value (BV-associated bacteria [2]; Specimen 5) was 3.8.

In the case of `Cc1ncc([N+](=O)[O-])n1CCO` [metronidazole], the cure rate (BV; BV patients) is listed as “about 60%”.

In the case of `O=C([O-])c1ccccc1.[Na+]` [sodium benzoate], the “turbidity, Lactobacilli (0 hr)” value (L. jensenii; 0.1% (w/v) sodium benzoate) is reported as 0.6, the “turbidity, Lactobacilli (22 hrs)” value (L. jensenii; 0.1% (w/v) sodium benzoate) is reported as 0.9 and the “turbidity, Lactobacilli (0 hr)” value (L. jensenii; 0.2% (w/v) sodium benzoate) is reported as 0.7. The “turbidity, Lactobacilli (22 hrs)” value (L. jensenii; 0.2% (w/v) sodium benzoate) was 0.7, the “turbidity, Candida (0 hr)” value (Candida glabrada isolate; 0.1% (w/v) sodium benzoate) was 0.6 and the “turbidity, Candida (72 hrs)” value (Candida glabrada isolate; 0.1% (w/v) sodium benzoate) was 7.1. For the same compound, the “turbidity, Candida (0 hr)” value (Candida glabrada isolate; 0.2% (w/v) sodium benzoate) was 0.6 and the “turbidity, Candida (72 hrs)” value (Candida glabrada isolate; 0.2% (w/v) sodium benzoate) was 2.1.

With `CC(=O)c1c([O-])cc(C)oc1=O.[Na+]` [sodium dehydroacetate] the “turbidity, Lactobacilli (0 hr)” value (L. jensenii; [6]) was 0.5, the “turbidity, Lactobacilli (22 hrs)” value (L. jensenii; [6]) was 1.4 and the “turbidity, Candida (0 hr)” value (Candida glabrada isolate; [6]) was 0.5. The “turbidity, Candida (72 hrs)” value (Candida glabrada isolate; [6]) was 3.9.

For `CCC(=O)[O-].[Na+]` [sodium propionate], the “turbidity, Lactobacilli (0 hr)” value (L. jensenii; 0.25% (w/v) sodium propionate) was 0.6, the “turbidity, Lactobacilli (22 hrs)” value (L. jensenii; 0.25% (w/v) sodium propionate) was 5.2 and the “turbidity, Lactobacilli (0 hr)” value (L. jensenii; 0.5% (w/v) sodium propionate) was 0.4. For the same compound, the “turbidity, Lactobacilli (22 hrs)” value (L. jensenii; 0.5% (w/v) sodium propionate) was 1.7, the “turbidity, Candida (0 hr)” value (Candida glabrada isolate; 0.25% (w/v) sodium propionate) was 0.5 and the “turbidity, Candida (72 hrs)” value (Candida glabrada isolate; 0.25% (w/v) sodium propionate) was >7.5. The “turbidity, Candida (0 hr)” value (Candida glabrada isolate; 0.5% (w/v) sodium propionate) was 0.4 and the “turbidity, Candida (72 hrs)” value (Candida glabrada isolate; 0.5% (w/v) sodium propionate) was 6.3.

In the case of `CCS(=O)(=O)CCn1c([N+](=O)[O-])cnc1C` [tinidazole], the “cure rate for BV” value (BV; FDA 1998 guideline, both the clinical and microbiological cure standards met) is listed as 37% and the “cure rate for BV” value (BV; cure if 3 of the 4 traditional Amsel clinical criteria are normal) is listed as 57%.
